In general, MIC90 refers to an inhibitory concentration at the 90% level, which refers to growth in some studies and to a panel of isolates in others. Low values mean greater potency, high ones weaker potency. As usually defined, the MIC is the least concentration at which growth counts as inhibited. The CC50 is the concentration at which the toxic effect on the cells reaches its halfway point. A high value points to better tolerance by the cells.

In brackets after ≈: the same amount, converted by molar mass.

Format in all cases: functional
For assay [1], the system named is Mycobacterium tuberculosis. The experiment in a line: (§1) AntiMycobacterium tuberculosis activity day 10 in 7H9/2.5mM butyrate/pH6/0.1mM nitrite MIC90 (uM). The conditions noted are these: 240 h.
The test system of assay [2] is Mycobacterium tuberculosis. The experiment in a line: AntiMycobacterium tuberculosis activity 2-week Alamar Blue 7H9/ADC/Tw MIC (uM). The conditions noted are these: 336 h. (In general: Resazurin is reduced to fluorescent resorufin, in cell work by metabolically active cells.)
The test system of assay [3] is Mycobacterium tuberculosis. As to the kind of experiment: AntiMycobacterium tuberculosis activity 2-week Alamar Blue 7H9/cholesterol/BSA/Tx MIC (uM). The conditions noted are these: 336 h.
Assay [4] deals with Mycobacterium tuberculosis. The experiment in a line: AntiMycobacterium tuberculosis activity 1-week 7H9/glucose/BSA/Tx MIC (uM). To be noted: 168 h.
Assay [5] concerns Mycobacterium tuberculosis. As to the kind of experiment: AntiMycobacterium tuberculosis activity 2-week 7H9/ADC/Tw MIC (uM). To be noted: 336 h.
Assay [6] has as its system Mycobacterium tuberculosis. As to the kind of experiment: AntiMycobacterium tuberculosis activity Non-Replicating form: Average MIC90 (uM).
Assay [7] concerns Mycobacterium tuberculosis. As to the kind of experiment: AntiMycobacterium tuberculosis activity 2-week 7H9/DPPC/cholesterol/BSA/Tx MIC (uM). The conditions noted are these: 336 h.
Assay [8] deals with Mycobacterium tuberculosis. The experiment in a line: AntiMycobacterium tuberculosis activity 2-week GAST/Fe MIC (uM). The conditions noted are these: 336 h.
Assay [9] deals with Mycobacterium tuberculosis. As to the kind of experiment: AntiMycobacterium tuberculosis activity day 21 in 7H9/2.5mM butyrate/pH6/0.1mM nitrite MIC90 (uM). The conditions noted are these: 504 h.
The subject of assay [10] is Mycobacterium tuberculosis. The experiment in a line: AntiMycobacterium tuberculosis activity Replicating form: Average MIC90 (uM).
Another assay relates to HepG2. As to the kind of experiment: HepG2 CC50 (uM) Cytotoxicity. The conditions noted are these: Homo sapiens.
In assay [11] the test system is Mycobacterium tuberculosis. The experiment in a line: AntiMycobacterium tuberculosis activity 1-week 7H9/DPPC/cholesterol/BSA/Tx MIC (uM). The conditions noted are these: 168 h.
Assay [12] has as its system Mycobacterium tuberculosis. The experiment in a line: AntiMycobacterium tuberculosis activity 1-week 7H9/cholesterol/BSA/Tx MIC (uM). The conditions noted are these: 168 h.
In assay [13] the test system is Mycobacterium tuberculosis. The description is as §1. The conditions noted are these: 240 h. The source holds these as a separate data set.
Assay [14] has as its system Mycobacterium tuberculosis. As to the kind of experiment: AntiMycobacterium tuberculosis activity day 21 MIC99 in 7H9/2.5mM butyrate/pH6/0.1mM nitrite MIC99 (uM). The conditions noted are these: 504 h.
Assay [15] deals with Mycobacterium tuberculosis. The experiment in a line: AntiMycobacterium tuberculosis activity 2-week 7H9/glucose/BSA/Tx MIC (uM). The conditions noted are these: 336 h.
In assay [16] the test system is Mycobacterium tuberculosis. As to the kind of experiment: AntiMycobacterium tuberculosis activity 1-week 7H9/ADC/Tw MIC (uM). The conditions noted are these: 168 h.
The test system of assay [17] is Mycobacterium tuberculosis. As to the kind of experiment: AntiMycobacterium tuberculosis activity 1-week GAST/Fe MIC (uM). To be noted: 168 h.

Consider `O=C(NCc1cc(Cl)cc(Cl)c1)c1c(C(F)(F)F)nc2ccccn12`, for which the MIC90 in assay [1] was 1.5 µM (≈ 0.582 µg/mL); in assay [6], 2.93 µM (≈ 1.14 µg/mL); in assay [9], 12.5 µM (≈ 4.85 µg/mL); in [10], more than 100 µM; in [13] it was more than 50 µM. Moreover, the minimal inhibitory concentration (MIC) in assay [2] is 12.5 µM (≈ 4.85 µg/mL); in assay [3] it was 1.2 µM (≈ 0.466 µg/mL); in assay [4] it was more than 50 µM; in [5], 37 µM (≈ 14.4 µg/mL); in [7], 12.5 µM (≈ 4.85 µg/mL); in [8], 0.39 µM (≈ 0.151 µg/mL). Besides, the MIC in [11] is 4.7 µM (≈ 1.82 µg/mL); in [12], 2.3 µM (≈ 0.893 µg/mL); in [14] it was more than 50 µM; in [15] it was more than 50 µM; in assay [16] it was 12.5 µM (≈ 4.85 µg/mL); in assay [17] it was 0.1 µM (≈ 0.0388 µg/mL). This compound displayed a CC50 with HepG2 of 38.3 µM.
In the case of `O=C(Nc1nnc(-c2ccc(Cl)s2)o1)c1ccc(Cl)s1`, the MIC90 in [1] is 6.5 µM (≈ 2.25 µg/mL); in assay [6], 2.76 µM (≈ 0.956 µg/mL); in assay [9], 6.25 µM (≈ 2.16 µg/mL); in assay [10], 35.2 µM (≈ 12.2 µg/mL); in [13], more than 50 µM. Further, the MIC in [2] stood at 9.4 µM (≈ 3.25 µg/mL); in [3], 6.25 µM (≈ 2.16 µg/mL); in assay [4], 4.7 µM (≈ 1.63 µg/mL); in assay [5] it was 9.4 µM (≈ 3.25 µg/mL); in [7] it was 12.5 µM (≈ 4.33 µg/mL); in [8], 1.2 µM (≈ 0.415 µg/mL). The minimum inhibitory concentration (MIC) is 6.25 µM (≈ 2.16 µg/mL) in assay [11]; 3.13 µM (≈ 1.08 µg/mL) in [12]; more than 50 µM in assay [14]; 6.25 µM (≈ 2.16 µg/mL) in [15]; 9.4 µM (≈ 3.25 µg/mL) in assay [16]; 0.78 µM (≈ 0.27 µg/mL) in assay [17]. The midpoint of cytotoxicity with HepG2, the CC50, lay at 50.1 µM.
In the case of `N#Cc1nc(-c2ccccc2F)oc1NCCc1ccccc1`, the MIC90 in [1] was 50 µM (≈ 15.4 µg/mL); in assay [6], 75.5 µM (≈ 23.2 µg/mL); in [9], more than 50 µM; in assay [10], more than 100 µM; in [13], more than 50 µM. Further, the MIC was 37 µM (≈ 11.4 µg/mL) in assay [2]; 12.5 µM (≈ 3.84 µg/mL) in assay [3]; more than 50 µM in assay [4]; more than 50 µM in assay [5]; 50 µM (≈ 15.4 µg/mL) in assay [7]; 1.56 µM (≈ 0.479 µg/mL) in [8]. Besides, the MIC in assay [11] is 12.5 µM (≈ 3.84 µg/mL); in [12] it was 19 µM (≈ 5.84 µg/mL); in assay [14], more than 50 µM; in [15], more than 50 µM; in assay [16], more than 50 µM; in [17], 0.78 µM (≈ 0.24 µg/mL). The same compound came in with a CC50 with HepG2 of more than 100 µM.
Regarding `O=C(C1CCN(c2nnc(-n3cccc3)s2)CC1)N1CCC(Cc2ccccc2)CC1`, the MIC90 in assay [1] was determined as 0.19 µM (≈ 0.0828 µg/mL); in [6] it was 0.8 µM (≈ 0.348 µg/mL); in [9] it was 0.19 µM (≈ 0.0828 µg/mL); in [10] it was 0.94 µM (≈ 0.409 µg/mL); in assay [13] it was 0.78 µM (≈ 0.34 µg/mL). Moreover, the MIC in assay [2] stood at 0.07 µM (≈ 0.0305 µg/mL); in [3], 0.05 µM (≈ 0.0218 µg/mL); in [4] it was 0.1 µM (≈ 0.0436 µg/mL); in assay [5] it was 0.07 µM (≈ 0.0305 µg/mL); in assay [7], 0.04 µM (≈ 0.0174 µg/mL); in assay [8], 0.02 µM (≈ 0.00871 µg/mL). The MIC came to 0.02 µM (≈ 0.00871 µg/mL) in assay [11]; 0.02 µM (≈ 0.00871 µg/mL) in assay [12]; 0.78 µM (≈ 0.34 µg/mL) in [14]; 0.1 µM (≈ 0.0436 µg/mL) in [15]; 0.1 µM (≈ 0.0436 µg/mL) in [16]; 0.02 µM (≈ 0.00871 µg/mL) in [17]. In the assay with HepG2, this compound returned a CC50 of more than 100 µM.
As to `CC(=O)NCC1CN(c2ccc(-c3ccc(CNCc4cn[nH]n4)cc3)c(F)c2)C(=O)O1` (stereo not drawn), the MIC90 in [1] worked out at 0.19 µM (≈ 0.0833 µg/mL); in assay [6] it was 0.31 µM (≈ 0.136 µg/mL); in assay [9], 0.39 µM (≈ 0.171 µg/mL); in assay [10], 0.51 µM (≈ 0.224 µg/mL); in [13], 1.5 µM (≈ 0.658 µg/mL). The MIC amounted to 0.39 µM (≈ 0.171 µg/mL) in [2]; 0.39 µM (≈ 0.171 µg/mL) in assay [3]; 0.2 µM (≈ 0.0877 µg/mL) in assay [4]; 0.39 µM (≈ 0.171 µg/mL) in assay [5]; 0.3 µM (≈ 0.132 µg/mL) in assay [7]; 0.15 µM (≈ 0.0658 µg/mL) in assay [8]. The minimal inhibitory concentration (MIC) in [11] is 0.1 µM (≈ 0.0438 µg/mL); in assay [12], 0.3 µM (≈ 0.132 µg/mL); in assay [14] it was 1.5 µM (≈ 0.658 µg/mL); in [15] it was 0.3 µM (≈ 0.132 µg/mL); in [16] it was 0.3 µM (≈ 0.132 µg/mL); in [17] it was 0.1 µM (≈ 0.0438 µg/mL). The CC50 in the assay with HepG2 was more than 100 µM.
Regarding `COc1cccc(-c2nc3c(N4CCCC4)cccc3n2CC2CCCN2)n1` (stereo not drawn), the MIC90 is 12.5 µM (≈ 4.72 µg/mL) in assay [1]; 80.6 µM (≈ 30.4 µg/mL) in assay [6]; 25 µM (≈ 9.44 µg/mL) in [9]; 38.5 µM (≈ 14.5 µg/mL) in assay [10]; more than 50 µM in [13]. The MIC is 6.25 µM (≈ 2.36 µg/mL) in assay [2]; 9.4 µM (≈ 3.55 µg/mL) in assay [3]; 25 µM (≈ 9.44 µg/mL) in assay [4]; 9.4 µM (≈ 3.55 µg/mL) in assay [5]; 50 µM (≈ 18.9 µg/mL) in [7]; 4.7 µM (≈ 1.77 µg/mL) in assay [8]. Besides, the MIC in assay [11] was 25 µM (≈ 9.44 µg/mL); in assay [12], 37 µM (≈ 14 µg/mL); in assay [14] it was more than 50 µM; in assay [15], 37 µM (≈ 14 µg/mL); in [16], 9.4 µM (≈ 3.55 µg/mL); in assay [17], 4.7 µM (≈ 1.77 µg/mL). In the assay on HepG2, this compound gave a 50% cytotoxic concentration (CC50) of 25 µM.

Values taken from ChEMBL document CHEMBL3832761, “MMV Pathogen Box Bioactivity Data” (2017).
